Data published in US9006228B2 (Merck Sharp & Dohme Corp., priority 2011, dated 2015).

What follows are compounds tested against T1, human GPR119 (Homo sapiens, UniProt Q8TDV5) (assay: Measurement of GPR119 signaling (cAMP assay; LANCE kit or HTRF) in HEK293 cells stably transfected with human GPR119). Conditions: agonist-stimulated cAMP in HEK293 cells expressing human GPR119.
T1 sequence (Q8TDV5 1-308 limits assumed): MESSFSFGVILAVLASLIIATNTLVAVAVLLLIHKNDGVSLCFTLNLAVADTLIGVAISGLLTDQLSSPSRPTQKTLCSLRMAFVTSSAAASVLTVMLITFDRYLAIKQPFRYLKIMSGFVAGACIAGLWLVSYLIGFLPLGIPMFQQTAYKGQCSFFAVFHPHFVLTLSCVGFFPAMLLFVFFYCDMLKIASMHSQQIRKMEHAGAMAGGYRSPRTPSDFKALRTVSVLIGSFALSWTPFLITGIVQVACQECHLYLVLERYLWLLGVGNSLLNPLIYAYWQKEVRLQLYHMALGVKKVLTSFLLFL
Type: cell-based
Protocol: Measurement of GPR119 Signaling Using LANCE 384-Well cAMP Kit
The adenylate cyclase assay was constructed following the LANCE™ cAMP Kit (Perkin Elmer, AD0264) instructions. […] The reaction was stopped by incubating with the supplied detection buffer containing the europium chelate of the Eu-SA/Biotin-cAMP tracer for 3 hours. The assay was performed in duplicate in a 384 well plate for duplicate plates. Fluorescence at 665 nm was measured using a PHERAstar instrument. Basal activity was determined using a DMSO control and maximum response was defined as cAMP stimulation produced by an internal agonist control. Standard cAMP concentrations were assayed concurrently for conversion of fluorescence signal to cAMP level. The data was analyzed using 4-parameter curve fit in Microsoft Excel.
Measurement of GPR119 Signaling Using a Cyclic AMP (cAMP) Homogenous Time Resolved Fluorescence (HTRF) Assay
Chinese hamster ovary (CHO) cell lines stably transfected with the permissive guanine nucleotide binding protein alpha 15 (Gα15) and murine GPR119 were maintained in DMEM media containing FBS, penicillin-streptomycin, puromycin, and G418 (geneticin). […] Agonist activation of the GPR119 receptor was measured in receptor transfected cells described above, treated with compounds of this invention, using a commercial homogenous time resolved fluorescence (HTRF) kit for measurement of cAMP (CisBio, Bedford, Mass.). The assay was performed in 96-well half-volume plates (murine) or 384-well plates (human) following the manufacturers instructions. Briefly, suspended cells were incubated with a dose titration of test compound at RT for 60 min, lysed, and incubated with HTRF reagents for an additional 60 min. The plate was read using an Envision multilabel reader (Perkin Elmer) adjusted to read time resolved fluorescence and the cAMP concentrations were extrapolated from a cAMP calibration curve. […] The concentration of test compound required to stimulate a half-maximal response (EC50), and efficacy as compared to an internal agonist control, was determined from a sigmoidal 4-parameter curve fit of the resulting plot of normalized activity versus compound concentration.

Compound	EC50 [nM]
CCc1cnc(N2CCC([C@H]3C[C@H]3COCc3cc(F)c(S(C)(=O)=O)c(F)c3)CC2)nc1 [Example 46]	0.4
CC(C)c1noc(N2CCC([C@H]3C[C@H]3COCc3ccc(S(C)(=O)=O)cc3)CC2)n1 [Example 24, 1-(3-isopropyl-1,2,4-oxadiazol-5-yl)-4-[(1R,2R)-2-({[4-(methylsulfonyl)benzyl]oxy}methyl)cyclopropyl]piperidine]	0.92
COC(C)c1cnc(N2CCC([C@H]3C[C@H]3COCc3ccc(S(C)(=O)=O)cc3F)CC2)nc1 (single isomer, unassigned) [Example 125]	0.36
CCc1cnc(N2CCC([C@H]3C[C@H]3COCc3ccc(-c4ccnc(N)n4)cc3F)CC2)nc1 [Example 105, 4-{4-[({(1R,2R)-2-[1-(5-ethylpyrimidin-2-yl)piperidin-4-yl]cyclopropyl}methoxy)methyl]-3-fluorophenyl}pyrimidin-2-amine]	10.8
COC1CN(C(=O)Cc2ccc(COC[C@@H]3C[C@@H]3C3CCN(c4nc(C(C)C)no4)CC3)cc2F)C1 [Example 142, 2-(2-fluoro-4-((((1R,2R)-2-(1-(3-isopropyl-1,2,4-oxadiazol-5-yl)piperidin-4-yl)cyclopropyl)methoxy)methyl)phenyl)-1-(3-methoxyazetidin-1-yl)ethanone]	0.95
COCc1cnc(N2CCC([C@H]3C[C@H]3COCc3ccc(S(C)(=O)=O)cc3F)CC2)nc1 [Example 77, 2-{4-[(1R,2R)-2-({[2-fluoro-4-(methylsulfonyl)benzyl]oxy}methyl)cyclopropyl]piperidin-1-yl}-5-(methoxymethyl)pyrimidine]	1.6
CCc1cnc(N2CCC([C@H]3C[C@H]3[C@@H](COC)OCc3ccc(S(C)(=O)=O)cc3)CC2)nc1 [Example 66]	0.19
CCc1cnc(N2CCC([C@H]3C[C@H]3COCc3ccc(-c4ncno4)cc3)CC2)nc1 [Example 63, 5-ethyl-2-{4-[(1R,2R)-2-({[4-(1,2,4-oxadiazol-5-yl)benzyl]oxy}methyl)cyclopropyl]piperidin-1-yl}pyrimidine]	5.5
CS(=O)(=O)c1ccc(COC[C@@H]2C[C@@H]2C2CCN(c3ncc(F)cn3)CC2)nc1 [Example 5, 5-fluoro-2-{4-[(1R,2R)-2-({[5-(methylsulfonyl)pyridin-2-yl]methoxy}methyl)cyclopropyl]piperidin-1-yl}pyrimidine]	21
CS(=O)(=O)c1ccc(COC[C@@H]2C[C@@H]2C2CCN(c3ncc(Cl)cn3)CC2)cc1F [Example 41, 5-chloro-2-{4-[(1R,2R)-2-({[3-fluoro-4-(methylsulfonyl)benzyl]oxy}methyl)cyclopropyl]piperidin-1-yl}pyrimidine]	0.4
CC(C)(C)OC(=O)N1CCC([C@H]2C[C@H]2COCc2ccc(S(=O)(=O)CCO)cc2F)CC1 [Example 79, tert-butyl 4-{(1R,2R)-2-[({2-fluoro-4-[(2-hydroxyethyl)sulfonyl]benzyl}oxy)methyl]cyclopropyl}piperidine-1-carboxylate]	7.1
CC(C)c1noc(N2CCC([C@H]3C[C@H]3COCc3ccc(-n4cnnn4)cc3F)CC2)n1 [Example 134, 5-(4-((1R,2R)-2-((2-fluoro-4-(1H-tetrazol-1-yl)benzyloxy)methyl)cyclopropyl)piperidin-1-yl)-3-isopropyl-1,2,4-oxadiazole]	1.7
CC1(OC(=O)N2CCC([C@H]3C[C@H]3COCc3ccc(-n4cnnn4)cc3F)CC2)CC1 [Example 136, 1-methylcyclopropyl 4-((1R,2R)-2-((2-fluoro-4-(1H-tetrazol-1-yl)benzyloxy)methyl)cyclopropyl)piperidine-1-carboxylate]	4.8
CCc1noc(N2CCC([C@H]3C[C@H]3COCc3ccc(S(C)(=O)=O)cc3)CC2)n1 [Example 30, 1-(3-ethyl-1,2,4-oxadiazol-5-yl)-4-[(1R,2R)-2-({[4-(methylsulfonyl)benzyl]oxy}methyl)cyclopropyl]piperidine]	2.8
CS(=O)(=O)c1ccc(COC[C@@H]2C[C@@H]2C2CCN(c3ncc(Br)cn3)CC2)nc1 [Example 4, 5-bromo-2-{4-[(1R,2R)-2-({[5-(methylsulfonyl)pyridin-2-yl]methoxy}methyl)cyclopropyl]piperidin-1-yl}pyrimidine]	1
CC(C)OC(=O)N1CCC([C@H]2C[C@H]2COCc2cc(F)c(S(C)(=O)=O)c(F)c2)CC1 [Example 50, isopropyl 4-[(1R,2R)-2-({[3,5-difluoro-4-(methylsulfonyl)benzyl]oxy}methyl)cyclopropyl] piperidine-1-carboxylate]	20.5
CC(O)CS(=O)(=O)c1ccc(COC[C@@H]2C[C@@H]2C2CCN(c3ncc(Cl)cn3)CC2)c(F)c1 (stereo partly drawn) [Example 95, 1-({4-[({(1R,2R)-2-[1-(5-chloropyrimidin-2-yl)piperidin-4-yl]cyclopropyll}methoxy)methyl]-3-fluorophenyl}sulfonyl)propan-2-ol]	2.4
CS(=O)(=O)c1c(F)cc(COC[C@@H]2C[C@@H]2C2CCN(c3ncc(Cl)cn3)CC2)cc1F [Example 45, 5-chloro-2-{4-[(1R,2R)-2-({[3,5-difluoro-4-(methylsulfonyl)benzyl]oxy}methyl)cyclopropyl]piperidin-1-yl}pyrimidine]	0.6
CCc1cnc(N2CCC([C@H]3C[C@H]3COCc3ccc(-c4ccc(C)nn4)cc3F)CC2)nc1 [Example 100, 3-{4-[({(1R,2R)-2-[1-(5-ethylpyrimidin-2-yl)piperidin-4-yl]cyclopropyl}methoxy)methyl]-3-fluorophenyl}-6-methylpyridazine]	1
CC(C)Cc1cnc(N2CCC([C@H]3C[C@H]3COCc3ccc(S(C)(=O)=O)cc3)CC2)nc1 [Example 19, 5-isobutyl-2-{4-[(1R,2R)-2-({[4-(methylsulfonyl)benzyl]oxy}methyl)cyclopropyl]piperidin-1-yl}pyrimidine]	0.13
CC(C)OC(=O)N1CCC([C@H]2C[C@H]2COCc2ccc(S(C)(=O)=O)c(F)c2)CC1 [Example 42, isopropyl 4-[(1R,2R)-2-({[3-fluoro-4-(methylsulfonyl)benzyl]oxy}methyl)cyclopropyl]piperidine-1-carboxylate]	8.5
Cc1cnc(N2CCC([C@H]3C[C@H]3COCc3ccc(S(C)(=O)=O)cc3)CC2)nc1 [Example 21, 5-methyl-2-{4-[(1R,2R)-2-({[4-(methylsulfonyl)benzyl]oxy}methyl)cyclopropyl]piperidin-1-yl}pyrimidine]	1.6
CC(C)(C)OC(=O)N1CCC([C@H]2C[C@H]2COCc2cc(F)c(S(C)(=O)=O)c(F)c2)CC1 [Example 44, tert-butyl 4-[(1R,2R)-2-({[3,5-difluoro-4-(methylsulfonyl)benzyl]oxy}methyl)cyclopropyl]piperidine-1-carboxylate]	14.8
CCc1cnc(N2CCC([C@H]3C[C@H]3COCc3ccc(-c4ncco4)cc3)CC2)nc1 [Example 54, 5-ethyl-2-{4-[(1R,2R)-2-({[4-(1,3-oxazol-2-yl)benzyl]oxy}methyl)cyclopropyl]piperidin-1-yl}pyrimidine]	12
CCc1cnc(N2CCC([C@H]3C[C@H]3[C@H](COC)OCc3ccc(S(C)(=O)=O)cc3)CC2)nc1 [Example 65]	850
CC(C)c1cnc(N2CCC([C@H]3C[C@H]3COCc3ccc(S(C)(=O)=O)cc3)CC2)nc1 [Example 23, 5-isopropyl-2-{4-[(1R,2R)-2-({[4-(methylsulfonyl)benzyl]oxy}methyl)cyclopropyl]piperidin-1-yl}pyrimidine]	0.26
CS(=O)(=O)c1c(F)cc(COC[C@@H]2C[C@@H]2C2CCN(c3ncc(C4CC4)cn3)CC2)cc1F [Example 48, 5-cyclopropyl-2-{4-[(1R,2R)-2-({[3,5-difluoro-4-(methylsulfonyl)benzyl]oxy}methyl)cyclopropyl]piperidin-1-yl}pyrimidine]	0.6
COCc1cnc(N2CCC([C@H]3C[C@H]3COCc3cc(F)c(S(C)(=O)=O)c(F)c3)CC2)nc1 [Example 128, 2-(4-((1R,2R)-2-(((3,5-difluoro-4-(methylsulfonyl)benzyl)oxy)methyl)cyclopropyl)piperidin-1-yl)-5-(methoxymethyl)pyrimidine]	4.5
